Data set [1] concerns HCV RNA replication (full-length luciferase reporter-linked HCV genome). As to the kind of experiment: Luciferase reporter-linked HCV replication assay in Huh7.5 cells. Type of data set: cell-based, Hepatitis C Virus. The following applies: for percent of normal HCV RNA replication remaining at 5 µM / percent of normal HCV RNA replication remaining at 10 µM: Hepatitis C virus, Huh7.5, read-out: AV, percent of normal HCV RNA replication remaining. As for the experimental part: For example, HCV replication assays employing a luciferase reporter-linked HCV genome in the presence of various combinations of clemizole and an NS3 protease inhibitor (SCH503034) are shown in FIGS. 1A and 1B. In such assays, luciferase activity is directly proportional to HCV RNA genome replication. […] The results can be plotted on a linear or log scale as a function of drug concentrations to generate replication inhibition curves.
Luciferase assays were performed at 72 hr.
Medium was changed daily.
The experiment was repeated four times, each time with triplicates.

The subject of the next data set is Huh7.5 cells. The data set can be described thus: Alamar Blue viability assay. As for the experimental part: (§1) Huh-7.5 cells were maintained in Dulbecco's modified minimal essential medium (Gibco) supplemented with 1% L-glutamine (Gibco), 1% penicillin, 1% streptomycin (Gibco), 1× nonessential amino acids (Gibco) and 10% fetal bovine serum (Omega Scientific). Cell lines were passaged twice weekly after treatment with 0.05% trypsin-0.02% EDTA and seeding at a dilution of 1:5. Subconfluent Huh-7.5 cells were trypsinized and collected by centrifugation at 700 g for 5 min. The cells were then washed three times in ice-cold RNase-free PBS (BioWhittaker) and resuspended at 1.5*10^7 cells/ml in PBS. Wild type or mutant FL-J6/JFH-5′C19Rluc2AUbi RNA for electroporation was generated by in vitro transcription of XbaI-linearized DNA templates using the T7 MEGAscript kit (Ambion), followed by purification, essentially as described above (In vitro RNA transcription and fluorescent labeling). 5 μg of RNA was mixed with 400 μl of washed Huh-7.5 cells in a 2 mm-gap cuvette (BTX) and immediately pulsed (0.82 kV, five 99 μs pulses) with a BTX-830 electroporator. After a 10 min recovery at 25° C., pulsed cells were diluted into 10 ml of prewarmed growth medium. Cells from several electroporations were pooled to a common a stock and seeded in 6 well plates (5*10^5 cells per well). After 24 hr, medium was replaced and cells were grown in the presence of serial dilutions of the various inhibitory compounds (Sigma) identified in the screen. […] Untreated cells were used as a negative control for water soluble compounds. For compounds solubilized in DMSO, untreated cells were grown in the presence of corresponding concentrations of the solvent as a negative control. Medium was changed daily. After 72 hr of treatment, cells were subjected to an alamar blue based viability assay and luciferase assay.
(§2) Following 72 hrs of treatment, cells were incubated for 3 hrs at 37° C. in the presence of 10% Alamar Blue reagent (TREK Diagnostic Systems).
On the technique in general: Resazurin is reduced to fluorescent resorufin, in cell work by metabolically active cells.

Data set [2] is described as follows: Alamar Blue viability assay. The conditions noted are these: human. The procedure:
as §1, §2

Another data set concerns the target T1, HuR protein (Homo sapiens, UniProt Q15717).
T1 construct: made in house; […]
As to the kind of experiment: Microfluidic RNA binding assay of HuR (specificity of hits). The conditions noted are these: 0.1 mM. The source says:
For each experiment, an image was taken after MITOMI and the final PBS wash. This was used to determine the concentration of surface bound protein (FITC channel) as well as surface bound target RNA (Cy3 channel). […] Data from multiple data points were averaged, and their standard deviations calculated. Results were then normalized to 1. Between 10-20 replicates were included for each probe tested. A control protein, Gus-his (Roche) was included in each experiment and subjected to the same analysis. When present, detected signal with Gus-his was used for background subtraction.
Specificity of hits identified in the small molecule screen: To determine the specificity of the hits identified in the small molecule screen, the HuR protein (one of the human RNA binding protein used to validate our RNA binding assay) was selected. […] Binding of HuR to the consensus 4A RNA sequence was tested in the presence of the inhibitory molecules shown to inhibit RNA binding by NS4B. […] Similarly, 0.1 mM of the identified compounds didn't have an inhibitory effect on binding of HuR to the 3′ terminus of the negative HCV RNA strand.

For data set [3] the following is noted: human, in vivo; cited from earlier work.

T1 sequence (Q15717 whole entry): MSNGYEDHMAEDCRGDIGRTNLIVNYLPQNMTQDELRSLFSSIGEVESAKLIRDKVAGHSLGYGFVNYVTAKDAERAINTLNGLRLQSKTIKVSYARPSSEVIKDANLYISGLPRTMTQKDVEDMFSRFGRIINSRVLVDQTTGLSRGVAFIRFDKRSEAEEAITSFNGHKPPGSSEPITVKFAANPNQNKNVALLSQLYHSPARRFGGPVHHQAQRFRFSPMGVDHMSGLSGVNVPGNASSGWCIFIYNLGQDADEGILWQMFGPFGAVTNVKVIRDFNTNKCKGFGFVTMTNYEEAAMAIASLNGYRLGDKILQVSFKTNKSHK

Consider `Clc1ccc(Cn2c(CN3CCCC3)nc3ccccc32)cc1` [drawing 374], for which, in data set [1] (5 uM), the AV score result is “+ (60-90% residual activity)” and the percent of normal HCV RNA replication remaining at 5 µM was 62%. For the same compound, in data set [1] (10 uM), the AV score result is recorded as “++ (30-60% residual activity)” and the percent of normal HCV RNA replication remaining at 10 µM came to 37%. In addition, in the data set on Huh7.5 cells (5 uM), the “Viab, percent of normal cell viability remaining” value came out at 107%. In addition, the “Viab, percent of normal cell viability remaining” value in the data set with Huh7.5 cells (10 uM) is on record as 93%. Moreover, in data set [2], the viability at 72 h, 5 µM fell in the range of 90 to 100% and the viability at 72 h, 10 µM was in the range of 90 to 100%.
For the compound `Cc1nc2cc(Cl)ccc2n1Cc1ccccc1`, in data set [1] (5 uM), the AV score result is recorded as “+ (60-90% residual activity)” and the percent of normal HCV RNA replication remaining at 5 µM worked out at 87%. Further, in data set [1] (10 uM), the AV score result is “+ (60-90% residual activity)” and the percent of normal HCV RNA replication remaining at 10 µM came to 60%.
In the case of `COC(=O)c1ccc(Cn2cnc3ccccc32)cc1`, in data set [1] (5 uM), the AV score entry is reported as “+ (60-90% residual activity)” and the percent of normal HCV RNA replication remaining at 5 µM is 74%. In data set [1] (10 uM), the AV score result is “++ (30-60% residual activity)” and the percent of normal HCV RNA replication remaining at 10 µM came out at 54%.
With `CC(C)(C)c1ccc(Cn2cnc3ccccc32)cc1`, in data set [1] (5 uM), the AV score entry is listed as “+++ (0-30% residual activity)” and the percent of normal HCV RNA replication remaining at 5 µM was determined as 30%. In addition, in data set [1] (10 uM), the AV score result is “+++ (0-30% residual activity)” and the percent of normal HCV RNA replication remaining at 10 µM amounted to 12%.
Turning to `O=C(O)C1=CC(=C(c2ccc(O)c(C(=O)O)c2)c2ccc(O)c(C(=O)O)c2)C=CC1=O` [ATA, Aurintricarboxilic acid], at HuR protein, the “inhibitory effect on binding of HuR to the 3′ terminus of the negative HCV RNA strand” value was “significantly inhibited” and the “inhibitory effect on binding of HuR to the consensus 4A RNA sequence” value is given as “significantly inhibited”.
Turning to Interferon alpha B2, in data set [1] (100 u/ml, 72 hr treatment), the “reduction of luciferase activity (positive control)” value is recorded as “three log reduction”.
Regarding `COc1ccc(Cn2cnc3ccccc32)cc1`, in data set [1] (5 uM), the AV score entry was “+ (60-90% residual activity)” and the percent of normal HCV RNA replication remaining at 5 µM was found to be 70%. In data set [1] (10 uM), the AV score entry is recorded as “++ (30-60% residual activity)” and the percent of normal HCV RNA replication remaining at 10 µM is 58%.
Taken in the same sequence, the figures for `Cc1ccc(Cn2cnc3ccccc32)cc1` were “++ (30-60% residual activity)”, 49%, “+++ (0-30% residual activity)” and 23%.
For `Cl.Clc1ccc(Cn2c(CN3CCCC3)nc3ccccc32)cc1` [Clemizole hydrochloride, 1-p-Chlorobenzyl-2-(1-pyrrolidinyl)methylbenzimidazole hydrochloride, reference compound], in data set [1] (20 μM, luciferase at 72 hr), the “decrease in viral replication” value is reported as “tenfold decrease”. Also, the cellular toxicity result in the data set with Huh7.5 cells (at concentrations up to 20 μM, 72 hr, Alamar Blue) is reported as “no measurable cellular toxicity”. For the same compound, the “time to relief of itching” value in data set [3] was 24 to 48 h.
As for `Brc1ccc(Cn2cnc3ccccc32)cc1`, in data set [1] (5 uM), the AV score entry was “+++ (0-30% residual activity)” and the percent of normal HCV RNA replication remaining at 5 µM amounted to 23%. In data set [1] (10 uM), the AV score result is recorded as “+++ (0-30% residual activity)” and the percent of normal HCV RNA replication remaining at 10 µM came out at 8%.
On to `Cc1nc2ccccc2n1Cc1ccc(Br)cc1`, for which, in data set [1] (5 uM), the AV score entry is “+++ (0-30% residual activity)” and the percent of normal HCV RNA replication remaining at 5 µM turned out to be 3%. In data set [1] (10 uM), the AV score entry is recorded as “+++ (0-30% residual activity)” and the percent of normal HCV RNA replication remaining at 10 µM is 2%.
For `OCc1nc2ccccc2n1Cc1ccc(Br)cc1`, in data set [1] (5 uM), the AV score result is “++ (30-60% residual activity)” and the percent of normal HCV RNA replication remaining at 5 µM is 50%. For the same compound, in data set [1] (10 uM), the AV score result is “+++ (0-30% residual activity)” and the percent of normal HCV RNA replication remaining at 10 µM was determined as 28%.
Consider `Cc1cc2ncn(Cc3ccc(Cl)cc3Cl)c2cc1C`, for which, in data set [1] (5 uM), the AV score result is “+++ (0-30% residual activity)” and the percent of normal HCV RNA replication remaining at 5 µM turned out to be 30%. For the same compound, in data set [1] (10 uM), the AV score result is “+++ (0-30% residual activity)” and the percent of normal HCV RNA replication remaining at 10 µM came out at 8%.

What is called viability is the share of living cells, or the viability signal relative to a control. Higher therefore signals better survival.

The values above are taken from US9061010B2, “Methods of treating a Flaviviridae family viral infection and compositions for treating a Flaviviridae family viral infection” (The Board of Trustees of the Leland Stanford Junior …, priority 2007, dated 2015).
